Results from patent publication US10590079B2, “Cyano-substituted indoles as LSD1 inhibitors” (Novartis AG, priority 2016, dated 2020).
Where two headings read alike, the source gives them in different places.

Tests used:
Molm13 cell = assay: Anti-proliferation assay in Molm13 cell; format: cell-based, human; conditions: 6 days, cell titer glow, read-out: (b) IC50 anti proliferative assay in molm13 cell
Description: Anti-Proliferation Assay in Molm13 Cell
After cell seeding, a compound of the present invention was added to the cell media (in concentrations ranging from 0 to 100 μM, 3× dilution series). After 6 days, 100 ul/well cell titer glow (Promega, cat#G7573) was added into the cell culture, and luminerence was read on Envision (Pelkin Elmer) to determine the viable cells. The percentage inhibition was calculated against the samples treated with DMSO.

full-length LSD1 = molecular target: T1, full-length LSD1 (Homo sapiens, UniProt O60341); assay: FL-LSD1 LC-MS assay; format: biochemical; conditions: 0.4 nM FL-LSD1, 0.25 μM FAD, 0.5 μM H3K4me1 peptide, 60 min; read-out: (a) IC50 LC-MS Qualified assay
T1 construct: the full-length LSD1 and 0.5 μM FAD in reaction buffer
Description: Representative compounds of the present invention were serially and separately diluted 3-fold in DMSO to obtain a total of twelve concentrations. […] A 5 μL solution of 1 μM of the peptide substrate H3K4me1 (histone H3[1-21]-biotin) in reaction buffer was added to each initiate reaction. […] The conversion ratio of H3K4me1 substrate to the H3K4me0 product was calculated by dividing the peak area of the H3K4me0 peptide by the total peak area of all those two peptides on the assumption that the ionization efficiency of those peptides is the same. The data were then fit to a dose response equation using the program Helios to get the IC50 values of the test compound.

CD11b = CD11b FACS assay; format: cell-based; conditions: Homo sapiens, THP-1; Thp1 cell, 96 hrs; read-out: (c) IC50 CD11b FACS assay
Description: Representative compounds of the present invention were serially and separately diluted 5-fold in DMSO to obtain a total of 6 concentrations. Then the compounds were added to Thp1 cell cultured in 96-well round bottom plate (Costar, Cat#3099) at 1:1000 dilution to obtain the highest concentration of 10 μM. The cells were further cultured for 96 hrs before FACS procedure.
FACS protocol: FACS was performed using standard flowcytometry. Cell was collected and washed with FACS buffer twice (2% heat inactivated FBS in PBS) in 96-well plate, and stained with antibody against CD11b, or isotype control, then washed with FACS buffer for 3 times before reading on Guava 8HT (Merck Millipore) Results were analyzed using Flowjo, and mean fluoreance was calculated and normalized to the cells treated with DMSO. The fold value were then analyzed via Graphpad Prism and fit to a dose response curve to get IC50 value of the test compound. Antibodies for FACS: PE mouse IgG1 k chain (BD Bioscience, #555749), PE mouse anti human CD11b (BD Bioscience, #555388)

How did the IC50 (Molm13 cell; Homo sapiens, MOLM-13, 144 h) turn out when Cc1c(N)cccc1-c1cn(C2CCC(O)C2)c2ccc(C#N)cc12 (racemic) [Example 80, Trans-3-(3-amino-2-methylphenyl)-1-(3-hydroxycyclopentyl)-1H-indole-5-carbonitrile] was run?
The IC50 was 0.39 µM.

And the IC50 (full-length LSD1)?
The IC50 was 0.024 µM.

With CN[C@H]1CC[C@H](n2cc(-c3cccc(N)c3C)c3cc(C#N)c(C)cc32)CC1 [Example 78, Trans-3-(3-amino-2-methylphenyl)-6-methyl-1-(4-(methylamino)cyclohexyl)-1H-indole-5-carbonitrile] as the compound, how does the IC50 (Molm13 cell; Homo sapiens, MOLM-13, 144 h) read?
The IC50 was 0.029 µM.

How did the IC50 (Molm13 cell; Homo sapiens, MOLM-13, 144 h) turn out when Cc1c(N)cccc1-c1cn(C2CCCC(O)C2)c2ccc(C#N)cc12 (stereo not drawn) [Example 83, Trans-3-(3-amino-2-methylphenyl)-1-(3-hydroxycyclohexyl)-1H-indole-5-carbonitrile] was run?
The IC50 was 0.27 µM.

What about the IC50 (full-length LSD1) of the same compound?
Its IC50 is 0.06 µM.

What does the source list for COc1ccc(-n2cc(-c3cncc(N)c3C)c3cc(C#N)c(C)cc32)cc1 [Example 71, 3-(5-amino-4-methylpyridin-3-yl)-1-(4-methoxyphenyl)-6-methyl-1H-indole-5-carbonitrile]?
IC50 (CD11b): 0.801 µM; IC50 (Molm13 cell; Homo sapiens, MOLM-13, 144 h): 0.051 µM; IC50 (full-length LSD1): 0.003 µM

Which IC50 (Molm13 cell) does the source give for Cc1cc2c(cc1C#N)c(-c1cncc(N)c1C)cn2C1CCC(O)C1 (single isomer, unassigned) [Example 88, Trans-3-(5-amino-4-methylpyridin-3-yl)-1-(3-hydroxycyclopentyl)-6-methyl-1H-indole-5-carbonitrile] here?
Its IC50 is 0.09 µM.

What about the IC50 (full-length LSD1) of the same compound?
Its IC50 is 0.015 µM.

With Cc1cc2c(cc1C#N)c(-c1cccc(N)c1C)cn2C1CCNCC1 [Example 97, 3-(3-amino-2-methylphenyl)-6-methyl-1-(piperidin-4-yl)-1H-indole-5-carbonitrile] as the compound, how does the IC50 (Molm13 cell; Homo sapiens, MOLM-13, 144 h) read?
Its IC50 is 0.926 µM.

And the IC50 (full-length LSD1)?
The IC50 was 0.014 µM.

Cc1cc2c(cc1C#N)c(-c1cncc(N)c1C)cn2C1CCC(O)C1 (single isomer, unassigned) [Example 87, Cis-3-(5-amino-4-methylpyridin-3-yl)-1-(3-hydroxycyclopentyl)-6-methyl-1H-indole-5-carbonitrile] was tested. Which IC50 (Molm13 cell; Homo sapiens, MOLM-13, 144 h) did it give?
The IC50 was 0.076 µM.

And the IC50 (full-length LSD1)?
Its IC50 is 0.015 µM.

Cc1cc2c(cc1C#N)c(-c1cncc(N)c1C)cn2[C@H]1CC[C@H](O)CC1 [Example 94, Trans-3-(5-amino-4-methylpyridin-3-yl)-1-(4-hydroxycyclohexyl)-6-methyl-1H-indole-5-carbonitrile] was tested. Which IC50 (Molm13 cell; Homo sapiens, MOLM-13, 144 h) did it give?
The IC50 was 0.073 µM.

And the IC50 (full-length LSD1)?
Its IC50 is 0.016 µM.

For Cc1cc2c(cc1C#N)c(-c1cccc(N)c1C)cn2[C@H]1C[C@H](O)C1 [Example 100, Trans-3-(3-amino-2-methylphenyl)-1-(3-hydroxycyclobutyl)-6-methyl-1H-indole-5-carbonitrile], which IC50 (Molm13 cell; Homo sapiens, MOLM-13, 144 h) is on record?
The IC50 was 0.048 µM.

With Cc1cc2c(cc1C#N)c(-c1cccc(N)c1C)cn2[C@H]1CC[C@H](O)CC1 [Example 93, Trans-3-(3-amino-2-methylphenyl)-1-(4-hydroxycyclohexyl)-6-methyl-1H-indole-5-carbonitrile] as the compound, how does the IC50 (CD11b) read?
The IC50 was 0.073 µM.

COc1ccc(-n2cc(-c3cccc(N)c3C)c3cc(C#N)c(C)cc32)cc1 [Example 65, 3-(3-amino-2-methylphenyl)-1-(4-methoxyphenyl)-6-methyl-1H-indole-5-carbonitrile] was tested. Which IC50 (CD11b) did it give?
The IC50 was 0.315 µM.

And the IC50 (Molm13 cell; Homo sapiens, MOLM-13, 144 h)?
Its IC50 is 0.123 µM.

What about the IC50 (full-length LSD1) of the same compound?
Its IC50 is 0.003 µM.

For Cc1cc2c(cc1C#N)c(-c1cccc(N)c1C)cn2[C@H]1CC[C@@H](O)CC1 [Example 95, Cis-3-(3-amino-2-methylphenyl)-1-(4-hydroxycyclohexyl)-6-methyl-1H-indole-5-carbonitrile], which IC50 (Molm13 cell; Homo sapiens, MOLM-13, 144 h) is on record?
Its IC50 is 0.049 µM.
